Experimental data published in US7575930B2, “Method for analyzing oligosaccharides from blood plasma” (priority 2005, dated 2009).

Assay: Monitoring of the plasma concentration of the main oligosaccharides of a VLMWH in human volunteers (plasma filtration + anion-exchange HPLC)
Assay type: in vivo
Experimental: A plasma sample with a volume of between 100 and 1000 μl is withdrawn and, if appropriate, the internal standard is added to the latter.
After homogenization, the resulting solution is introduced into a 30 kD Ultrafree 05 ultrafiltration cartridge (Millipore) rinsed beforehand with 250 μl of water by centrifuging at 10 000 rev/min for 5 minutes. The plasma is introduced into the upper part of the cartridge once or twice, if the amounts to be filtered are greater than 500 μl.
The cartridge is centrifuged at 10 000 rev/min for between 1 and 2 hours and then the filtrate is withdrawn. If appropriate, the second part of the plasma to be filtered is introduced into the upper part of the cartridge and the latter is again centrifuged. The exact amount of plasma introduced will have been weighed. The cartridge is centrifuged until the protein residue in the upper part of the cartridge represents no more than approximately 10% of the initial part.
The filtrate is withdrawn and 210 μl of 3M KCl per ml of plasma filtered are added to the concentrate.
After homogenization, the cartridge is centrifuged at 10 000 rev/min for between 1 and 4 hours. The cartridge is centrifuged until the protein residue in the upper part of the cartridge represents no more than approximately 10% of the initial part.
The second filtrate is withdrawn and 210 μl of 3M KCl per ml of plasma filtered are added a second time to the concentrate.
The third filtrate is withdrawn and 250 μl of water per ml of plasma filtered are added.
The filtrates are combined and diluted 5 fold in water, and the whole is injected directly in anion-exchange HPLC. Immediately before injection, the pH of the injected solution is adjusted to 3 by addition of 1N HCl.
The filtered plasma is analyzed by anion-exchange HPLC.
The columns used are IonPAc As11 columns (Dionex), with a length of 25 cm and an internal diameter of 2 mm. The detector used is a UV spectrophotometer equipped with an array of diodes.
The whole of the […] is injected after adjustment of the pH to 3 by addition of N HCl. The flow rate chosen is 0.22 ml/min; the column temperature is 40° C.
Elution is carried out in gradient mode. The two solutions used are:
Solvent A: NaH2PO4 2.5 mM, brought to pH 2.9 by addition of H3PO4
Solvent B: NaClO4 1N, NaH2PO4 2.5 mM, brought to pH 3.0 by addition of H3PO4
The elution gradient is as follows:
T=0 min: % B=3; T=40 min: % B=60; T=60 min: % B=80
A VLMWH with an average molecular weight of 2500 Da is administered at the target dose of 1.4 mg/kg to human volunteers. Blood samples are withdrawn at the times 0, 0.25 h, 0.5 h, 0.75 h, 1 h, 1.25 h, 1.5 h, 2 h, 2.5 h, 3 h, 3.5 h, 4 h, 4.5 h, 5 h, 6 h, 7 h, 8 h, 9 h, 10 h, 12 h, 14 h and 24 h after administration.
As the VLMWH used is a complex mixture of oligosaccharides, the study was limited to certain components chosen from this mixture.

[1] = 0 h after administration of VLMWH (2500 Da) 1.4 mg/kg
[2] = 0.25 h after administration of VLMWH (2500 Da) 1.4 mg/kg
[3] = 0.5 h after administration of VLMWH (2500 Da) 1.4 mg/kg
[4] = 0.75 h after administration of VLMWH (2500 Da) 1.4 mg/kg
[5] = 1 h after administration of VLMWH (2500 Da) 1.4 mg/kg
[6] = 1.25 h after administration of VLMWH (2500 Da) 1.4 mg/kg
[7] = 1.5 h after administration of VLMWH (2500 Da) 1.4 mg/kg
[8] = 2 h after administration of VLMWH (2500 Da) 1.4 mg/kg
[9] = 2.5 h after administration of VLMWH (2500 Da) 1.4 mg/kg
[10] = 3 h after administration of VLMWH (2500 Da) 1.4 mg/kg
[11] = 3.5 h after administration of VLMWH (2500 Da) 1.4 mg/kg
[12] = 4 h after administration of VLMWH (2500 Da) 1.4 mg/kg
[13] = 4.5 h after administration of VLMWH (2500 Da) 1.4 mg/kg
[14] = 5 h after administration of VLMWH (2500 Da) 1.4 mg/kg
[15] = 6 h after administration of VLMWH (2500 Da) 1.4 mg/kg
[16] = 7 h after administration of VLMWH (2500 Da) 1.4 mg/kg
[17] = 8 h after administration of VLMWH (2500 Da) 1.4 mg/kg
[18] = 9 h after administration of VLMWH (2500 Da) 1.4 mg/kg
[19] = 10 h after administration of VLMWH (2500 Da) 1.4 mg/kg
[20] = 12 h after administration of VLMWH (2500 Da) 1.4 mg/kg
[21] = 14 h after administration of VLMWH (2500 Da) 1.4 mg/kg

SMILES | plasma concentration [1] [nM] | plasma concentration [2] [nM] | plasma concentration [3] [nM] | plasma concentration [4] [nM] | plasma concentration [5] [nM] | plasma concentration [6] [nM] | plasma concentration [7] [nM] | plasma concentration [8] [nM] | plasma concentration [9] [nM] | plasma concentration [10] [nM] | plasma concentration [11] [nM] | plasma concentration [12] [nM] | plasma concentration [13] [nM] | plasma concentration [14] [nM] | plasma concentration [15] [nM] | plasma concentration [16] [nM] | plasma concentration [17] [nM] | plasma concentration [18] [nM] | plasma concentration [19] [nM] | plasma concentration [20] [nM] | also measured
CC(=O)NC1C(OC2C(C(=O)O)OC(OC3C(COS(=O)(=O)O)OC(OC4C(C(=O)O)OC(OC5C(COS(=O)(=O)O)OC(O)C(NS(=O)(=O)O)C5O)C(OS(=O)(=O)O)C4O)C(NS(=O)(=O)O)C3OS(=O)(=O)O)C(O)C2O)OC(COS(=O)(=O)O)C(OC2OC(C(=O)O)=CC(O)C2O)C1O (stereo not shown) [ΔIIaIIsIs] | 0 | 50 | 100 | 100 | 100 | 120 | 110 | 110 | 90 | 80 | 90 | 100 | 100 | 90 | 80 | 100 | 70 | 70 | 70 | 80 | plasma concentration [21]: 70 nM; plasma concentration (24 h after administration of VLMWH (2500 Da) 1.4 mg/kg): 50 nM
O=C(O)C1=CC(O)C(OS(=O)(=O)O)C(OC2C(COS(=O)(=O)O)OC(OC3C(C(=O)O)OC(OC4C(COS(=O)(=O)O)OC(OC5C(C(=O)O)OC(OC6C(COS(=O)(=O)O)OC(O)C(NS(=O)(=O)O)C6O)C(OS(=O)(=O)O)C5O)C(NS(=O)(=O)O)C4O)C(OS(=O)(=O)O)C3O)C(NS(=O)(=O)O)C2O)O1 (stereo not shown) [ΔIsIsIs] | 0 | 20 | 40 | 30 | 40 | 40 | 30 | 30 | 20 | 20 | 20 | 10 | 10 | 10 | 10 | 10 | 0 | 0 | 0 | 0 | plasma concentration [21]: 0 nM
O=C(O)C1=CC(O)C(OS(=O)(=O)O)C(OC2C(COS(=O)(=O)O)OC(OC3C(C(=O)O)OC(OC4C(COS(=O)(=O)O)OC(O)C(NS(=O)(=O)O)C4O)C(OS(=O)(=O)O)C3O)C(NS(=O)(=O)O)C2O)O1 (stereo not shown) [ΔIsIs] | 0 | 160 | 240 | 210 | 200 | 190 | 190 | 150 | 100 | 90 | 70 | 70 | 60 | 50 | 40 | 30 | 20 | 10 | 10 | 10 | plasma concentration [21]: 0 nM
O=C(O)C1=CC(O)C(OS(=O)(=O)O)C(OC2C(COS(=O)(=O)O)OC(O)C(NS(=O)(=O)O)C2O)O1 (stereo not shown) [ΔIs] | 0 | 240 | 300 | 260 | 230 | 200 | 190 | 160 | 110 | 100 | 80 | 70 | 60 | 40 | 30 | 30 | 20 | 10 | 10 | 0 | plasma concentration [21]: 0 nM
